Experimental data reported in paper PMC8081376 (Mutagenesis, 2020).
Like-named read-outs stand apart in the source and are kept apart here.

Key:
[1] = test system: rats and mice; conditions: cited from earlier work; for Carcinogenicity: rodent studies, topical for sodium xylene sulfonate, ref [65], [72], [82], [85]
[2] = EpiSkin S9 over 4 h for IQ; ref [58]; cited from earlier work
[3] = over 24 h; ref [58]; cited from earlier work
[4] = test system: Phenion®FT Skin Models
[5] = test system: Phenion®FT Skin Models (keratinocytes and fibroblasts)
[6] = test system: Phenion®FT Skin Models (keratinocytes and fibroblasts); conditions: application of the dye to the skin; ref [95]; cited from earlier work
[7] = test system: bacterial reverse mutation test (Ames test) strains; conditions: cited from earlier work
[8] = test system: mammalian cells (V79, CHO, CHL, HuLy, TK6, HepG2); conditions: cited from earlier work
[9] = test system: bone marrow, blood, liver, skin; conditions: cited from earlier work
[10] = test system: mammalian cells (CHL, V79, CHO, HuLy); conditions: cited from earlier work
[11] = test system: PRH, HepG2, CHO, TK6, CHL, MA-10 cells; conditions: TK6 cell line; ref [73]; cited from earlier work

Row | Compound | IARC class ([1]; ref IARC) [A] | Metabolism by skin S9 [2] | Metabolism in ex vivo skin [3] | Dose(s) exceeding the cytotoxicity limit in main or APC experiments [4] | Effect on % tail DNA / DNA migration in APC experiment [5] | Effect on % tail DNA / DNA migration in standard experiment [5] | RS Comet assay overall classification [5] | Carcinogenicity [1] | Dose producing signs of strong cytotoxicity that limited the top dose ([4]; human) [µg/cm^2] | Dose(s) exceeding the cytotoxicity limit in main or APC experiments ([4]; human) [µg/cm^2] | RS Comet assay outcome in SCCS opinion [6] | Ames test [7] | Standard in vitro micronucleus test [8] | In vivo micronucleus test in mice [9] | In vitro chromosomal aberration studies [10] | Dose producing signs of strong cytotoxicity that limited the top dose [4] [µg/cm^2] | Call of statistical prediction models 1 and 2 [5] | Expert call of the performing laboratory in the coded phase [5] | In vitro comet assay [11]
1 | 2-Amino-3-methylimidazo[4,5-f]quinolone [IQ] | 2 | not metabolised | not metabolised | 33.3–300 µg/cm^2 | did not show a statistically significant increase in DNA damage at any dose | moderate increase in % tail DNA was detected in one mid-dose group that was slightly outside the cytotoxicity limits | negative | – | – | – | – | – | – | – | – | – | – | – | –
2 | Nc1ccc(Cl)cc1 [4-Chloroaniline, 4-chloroaniline] | – | N-acetylated to N-acetyl-4-chloroaniline | not metabolised | – | did not induce an increase in DNA migration | did not increase % tail DNA in either cell type | negative | carcinogenic | 5 | ≥ 10 | – | – | – | – | – | – | – | – | –
3 | C[N+](C)(C)c1ccc2ccc(O)c(N=Nc3ccc(N)c([N+](=O)[O-])c3)c2c1.[Cl-] [Basic Brown 17] | – | – | – | – | – | – | – | – | – | – | lack of DNA damaging properties | positive findings | negative findings | – | – | – | – | – | –
4 | O=CC=O [Glyoxal] | – | – | – | – | statistically significant increase in DNA migration was observed in keratinocytes at the highest dose tested | DNA migration was not increased in either cell type | negative | non-carcinogenic | – | – | – | – | – | negative results | clear positive results | 25 | positive | negative | positive response
